Data on 7 compounds can be found in ChEMBL document CHEMBL3352686, “Development of synthetic lethality anticancer therapeutics” (J Med Chem, 2014).

The target of series [1] is Serine/threonine-protein kinase mTOR (Homo sapiens, UniProt P42345). The series can be described thus: Inhibition of mTOR (unknown origin).
Series [2] has as its target DNA-dependent protein kinase catalytic subunit (Homo sapiens, UniProt P78527). The series can be described thus: Inhibition of DNAPK (unknown origin).
Series [3] addresses Serine/threonine-protein kinase ATR (Homo sapiens, UniProt Q13535). Briefly: Inhibition of ATR (unknown origin).
For series [4], the target named is Serine-protein kinase ATM (Homo sapiens, UniProt Q13315). Briefly: Inhibition of ATM (unknown origin).
A short description of series [5]: Inhibition of PI3K (unknown origin). On the set-up: species or system Homo sapiens.
For series [6], the species on record is Homo sapiens. The series can be described thus: Toxicity in patient with refractory acute leukemia. The series is classed as organism-based. To be noted: in vivo.
Series [7] is described as follows: Terminal half life in BRCA mutation carrying cancer patient with sporadic cancer. The settings on record: human, in vivo.
Series [8] in a line: Cmax in BRCA mutation carrying cancer patient with sporadic cancer. The settings on record: human, in vivo.
Series [9] in a line: Cmax in advanced breast cancer patient with BRCA1/2 mutations at 400 mg dosed twice daily. To be noted: human, in vivo. More on the design: dose 400 mg. Type of series: ADME, organism-based.
Series [10] in a line: Terminal half life in advanced breast cancer patient with BRCA1/2 mutations at 400 mg dosed twice daily. The series is classed as ADME, organism-based. To be noted: human, in vivo, read-out: beta t1/2 (converted).
Series [11] relates to Homo sapiens. Briefly: Toxicity in advanced breast cancer patient with BRCA1/2 mutations assessed as maximum tolerated dose for twice daily dosing. Type of series: organism-based. To be noted: in vivo.
The test system of series [12] is Homo sapiens. The series can be described thus: In vivo inhibition of PARP activity in peripheral blood mononuclear cells of advanced breast cancer patient with BRCA1/2 mutations at 400 mg dosed twice daily. Type of series: functional.
Series [13] relates to Homo sapiens. Briefly: In vivo inhibition of PARP activity in tumor tissue of advanced breast cancer patient with BRCA1/2 mutations at 400 mg dosed twice daily. Type of series: functional.
For series [14], the species on record is Homo sapiens. Briefly: Toxicity in patient with solid tumor co-treated with 500 mg/m2 pemetrexed. The series is classed as organism-based. To be noted: in vivo.
Series [15] concerns Homo sapiens. Briefly: In vivo inhibition of PARP activity in peripheral blood mononuclear cells of advanced solid tumor patient at 12 mg/m2 co-treated with rucaparib and temzolomide. The series is classed as functional.
For series [16], the system named is Homo sapiens. The series can be described thus: In vivo inhibition of PARP activity in peripheral blood mononuclear cells of refractory solid tumor and lymphoma patient at 10 mg dosed twice daily on days 1 to 5 in 21-day cycles co-treated with 50 mg cyclophosphamide once daily administered on days 1 to 5. Type of series: functional.
A short description of series [17]: Half life in refractory solid tumor and lymphoma patient. To be noted: human, in vivo.
The subject of series [18] is Homo sapiens. Briefly: In vivo inhibition of PARP activity in tumor tissue of refractory solid tumor and lymphoma patient at 10 mg dosed twice daily on days 1 to 5 in 21-day cycles co-treated with 50 mg cyclophosphamide once daily administered on days 1 to 5. The series is classed as functional.
Series [19] has as its system Homo sapiens. Briefly: Toxicity in refractory solid tumor and lymphoma patient at 10 mg dosed twice daily on days 1 to 5 in 21-day cycles co-treated with 50 mg cyclophosphamide once daily administered on days 1 to 5. Type of series: organism-based. To be noted: in vivo.
In series [20] the test system is Homo sapiens. The series can be described thus: Toxicity in refractory solid tumor and lymphoma patient at 10 mg dosed twice daily on days 1 to 5 in 21-day cycles co-treated with 0.6 mg/m2/day, iv topotecan administered on days 1 to 5. The series is classed as organism-based. To be noted: in vivo.

Each structure is given as a SMILES string.

Sequence of Serine/threonine-protein kinase ATR (Q13535 whole entry): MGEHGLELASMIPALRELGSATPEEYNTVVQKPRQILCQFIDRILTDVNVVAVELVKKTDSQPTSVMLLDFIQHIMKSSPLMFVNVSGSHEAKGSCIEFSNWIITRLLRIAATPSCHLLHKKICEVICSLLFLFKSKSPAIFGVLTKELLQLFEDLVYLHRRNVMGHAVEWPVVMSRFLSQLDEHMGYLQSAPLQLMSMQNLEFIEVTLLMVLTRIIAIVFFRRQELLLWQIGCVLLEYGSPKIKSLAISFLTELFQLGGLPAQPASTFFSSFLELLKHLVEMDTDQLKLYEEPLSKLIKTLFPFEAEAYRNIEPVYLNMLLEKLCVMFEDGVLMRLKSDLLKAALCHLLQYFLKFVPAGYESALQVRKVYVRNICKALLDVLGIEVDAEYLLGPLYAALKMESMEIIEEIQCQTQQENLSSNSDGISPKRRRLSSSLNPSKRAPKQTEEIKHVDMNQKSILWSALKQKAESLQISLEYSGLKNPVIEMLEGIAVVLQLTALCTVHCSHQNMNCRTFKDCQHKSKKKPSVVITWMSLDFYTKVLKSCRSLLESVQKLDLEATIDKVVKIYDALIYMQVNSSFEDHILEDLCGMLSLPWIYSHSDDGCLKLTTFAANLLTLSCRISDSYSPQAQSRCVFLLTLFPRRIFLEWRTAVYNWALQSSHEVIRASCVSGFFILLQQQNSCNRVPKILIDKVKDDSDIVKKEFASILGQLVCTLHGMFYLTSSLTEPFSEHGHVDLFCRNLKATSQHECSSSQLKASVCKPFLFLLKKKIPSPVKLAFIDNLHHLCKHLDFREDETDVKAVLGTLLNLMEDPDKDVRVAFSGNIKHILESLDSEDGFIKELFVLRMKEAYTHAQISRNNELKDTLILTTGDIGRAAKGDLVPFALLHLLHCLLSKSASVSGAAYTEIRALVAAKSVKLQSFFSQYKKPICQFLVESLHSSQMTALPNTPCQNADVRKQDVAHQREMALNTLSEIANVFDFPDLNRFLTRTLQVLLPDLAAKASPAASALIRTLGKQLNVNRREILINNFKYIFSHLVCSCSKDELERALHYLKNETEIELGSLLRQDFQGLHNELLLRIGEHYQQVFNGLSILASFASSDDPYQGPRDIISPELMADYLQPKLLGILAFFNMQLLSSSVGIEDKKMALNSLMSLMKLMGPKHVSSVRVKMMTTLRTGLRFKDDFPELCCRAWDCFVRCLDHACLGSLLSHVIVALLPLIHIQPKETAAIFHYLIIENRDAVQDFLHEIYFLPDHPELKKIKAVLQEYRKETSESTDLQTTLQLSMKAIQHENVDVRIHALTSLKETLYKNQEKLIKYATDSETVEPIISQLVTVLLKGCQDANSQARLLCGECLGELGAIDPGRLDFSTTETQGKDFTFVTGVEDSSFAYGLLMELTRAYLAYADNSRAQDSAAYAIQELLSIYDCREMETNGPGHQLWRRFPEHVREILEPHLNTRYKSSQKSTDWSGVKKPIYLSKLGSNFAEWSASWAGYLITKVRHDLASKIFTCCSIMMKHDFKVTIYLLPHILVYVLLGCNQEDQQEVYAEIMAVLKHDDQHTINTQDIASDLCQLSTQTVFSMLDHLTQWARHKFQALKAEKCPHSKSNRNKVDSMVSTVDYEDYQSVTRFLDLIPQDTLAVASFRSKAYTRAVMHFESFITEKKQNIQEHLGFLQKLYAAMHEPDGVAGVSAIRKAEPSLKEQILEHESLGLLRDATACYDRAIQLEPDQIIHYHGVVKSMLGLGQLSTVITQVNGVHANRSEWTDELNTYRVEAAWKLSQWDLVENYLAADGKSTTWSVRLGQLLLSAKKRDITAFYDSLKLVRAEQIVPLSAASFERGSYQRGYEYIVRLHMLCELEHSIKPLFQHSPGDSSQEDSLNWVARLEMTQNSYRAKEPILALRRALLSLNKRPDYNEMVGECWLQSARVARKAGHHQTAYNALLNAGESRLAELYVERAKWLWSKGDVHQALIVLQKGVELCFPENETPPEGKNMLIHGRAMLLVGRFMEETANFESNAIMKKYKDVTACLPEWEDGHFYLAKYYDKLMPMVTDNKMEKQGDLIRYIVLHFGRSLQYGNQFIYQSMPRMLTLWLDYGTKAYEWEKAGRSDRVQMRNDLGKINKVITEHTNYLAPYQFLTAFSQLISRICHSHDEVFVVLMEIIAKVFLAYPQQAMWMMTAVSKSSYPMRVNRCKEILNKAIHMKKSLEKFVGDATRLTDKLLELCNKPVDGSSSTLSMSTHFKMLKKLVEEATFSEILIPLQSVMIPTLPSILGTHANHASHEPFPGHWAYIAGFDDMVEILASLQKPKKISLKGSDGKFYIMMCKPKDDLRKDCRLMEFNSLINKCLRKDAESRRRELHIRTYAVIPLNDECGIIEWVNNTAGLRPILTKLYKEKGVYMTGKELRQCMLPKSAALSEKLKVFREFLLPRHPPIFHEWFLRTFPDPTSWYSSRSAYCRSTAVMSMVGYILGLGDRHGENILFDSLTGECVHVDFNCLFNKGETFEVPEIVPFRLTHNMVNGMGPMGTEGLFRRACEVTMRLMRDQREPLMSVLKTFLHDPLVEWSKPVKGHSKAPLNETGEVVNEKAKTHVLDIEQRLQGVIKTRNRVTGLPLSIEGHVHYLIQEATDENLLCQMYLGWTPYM

In the case of `CC(C)(C#N)c1ccc(N2C(=O)OCc3cnc4ccc(-c5cnc6ccccc6c5)cc4c32)cc1`, the IC50 in [1] was 0.6 nM; in [2], > 36 nM; in series [3], 14 nM; in series [4], > 36 nM; in [5] it was > 36 nM.
Take `Cn1cc(C2C=NN3C(N)=C(Br)C([C@@H]4CCCNC4)=NC23)cn1` (stereo not given in full): the MTD in the series listed under Homo sapiens [6] was 56 mg/m2.
Consider `NC(=O)c1cccc2cn(-c3ccc([C@@H]4CCCNC4)cc3)nc12` [NIRAPARIB], for which the half-life in series [7] is 36.4 h. Also, the concentration in series [8] peaked (Cmax) at 2000 nM.
In series [9], `O=C(c1cc(Cc2n[nH]c(=O)c3ccccc23)ccc1F)N1CCN(C(=O)C2CC2)CC1` [OLAPARIB] yielded a Cmax of 2600 ng/mL. Also, in series [10], the half-life is 7 h. In addition, in the series with Homo sapiens [11], the MTD is 400 mg. Also, the “inhibition (INH)” value with Homo sapiens [12] was 50%; with Homo sapiens [13], 70%.
Take `Cc1cnc(NC(=O)Nc2cc(Br)c(C)cc2OC[C@@H]2CNCCO2)cn1` [RABUSERTIB]: in the series filed under Homo sapiens [14], the MTD is reported as 150 mg/m2.
For `CNCc1ccc(-c2[nH]c3cc(F)cc4c3c2CCNC4=O)cc1` [RUCAPARIB], in the series with Homo sapiens [15], the inhibition in vivo at 12 mg/m2 was 74%.
In the case of `C[C@]1(c2nc3c(C(N)=O)cccc3[nH]2)CCCN1` [VELIPARIB], the “inhibition (INH)” value with Homo sapiens [16] was found to be 50%; in the series with Homo sapiens [18], 80%. In series [17], this compound showed a half-life of 5 h. For the same compound, the MTD in the series on Homo sapiens [19] and with Homo sapiens [20] was 60 mg throughout.

As a reminder, the IC50 is the midpoint of a concentration-inhibition curve. A low value points to greater potency in that assay. As a reminder, the Cmax is the maximum level reached in the sampled fluid or tissue. For orientation: inhibition in vivo means the share of the control response that was lost under treatment.
